Assay results from ChEMBL document CHEMBL5137014, “Insight on pyrimido[5,4-g]indolizine and pyrimido[4,5-c]pyrrolo[1,2-a]azepine systems as promising photosensitizers on malignant cells” (Eur J Med Chem, 2022).
Active and inactive are the calls of the source. The rule behind the calls is not given here.

Tests used:
MDA-MB-231 [1] = test: Dark toxicity against human MDA-MB-231 cells assessed as cell viability after 72 hrs by MTT assay; assay type: functional, cell-based; conditions: MDA-MB-231, 72 h
MDA-MB-231 [2] = test: Phototoxicity against human MDA-MB-231 cells assessed as cell viability incubated for 1 hr followed by irradiated with 2 J/cm^2 of light dose measured after 72 hrs by MTT assay; assay type: functional, cell-based; conditions: MDA-MB-231, light or radiation study
[3] = Selectivity index, ratio of IC50 for dark toxicity against human MDA-MB-231 cells to IC50 for phototoxicity against human MDA-MB-231 cells irradiated with 2 J/cm^2 of light dose; assay type: cell-based; conditions: read-out: Ratio IC50
HCC1954 = test: Phototoxicity against human HCC1954 cells assessed as cell viability incubated for 1 hr followed by irradiated with 2 J/cm^2 of light dose measured after 24 hrs by resazurin assay; assay type: functional, cell-based; conditions: HCC1954, light or radiation study
T-24 [4] = test: Phototoxicity against human T24 cells assessed as cell viability incubated for 1 hr followed by irradiated with 2 J/cm^2 of light dose measured after 24 hrs by resazurin assay; assay type: functional, cell-based; conditions: T-24, light or radiation study
[5] = Induction of singlet oxygen in phosphate buffer assessed as RNO bleaching at pH 7.3 irradiated with 440 nm LED light by spectrophotometry; assay type: functional
[6] = Induction of superoxide anion generation irradiated with 560 nm LED light; assay type: functional
MDA-MB-231 [7] = test: Induction of reactive oxygen species production in human MDA-MB-231 cells assessed as increase in hydrogen peroxide production incubated for 1 hr followed by irradiated with 2 J/cm^2 of light dose by CM-H2DCFDA dye based fluorescence assay; assay type: functional, cell-based
MDA-MB-231 [8] = test: Induction of reactive oxygen species production in human MDA-MB-231 cells assessed as decrease in thiol formation incubated for 1 hr followed by irradiated with 2 J/cm^2 of light dose after 24 hrs by DTNB assay; assay type: functional, cell-based; conditions: time 25.0 hrs, TDE = time-dependent effect
DNA [9] = test: Induction of DNA damage in Escherichia coli pBR322 DNA assessed as open circular DNA irradiated with 7.5 J/cm^2 UV light dose relative to control; assay type: nucleic-acid assay
DNA [10] = test: Induction of DNA damage in Escherichia coli pBR322 DNA assessed as open circular DNA irradiated with 15 J/cm^2 UV light dose relative to control; assay type: nucleic-acid assay
DNA [11] = test: Induction of DNA damage in Escherichia coli pBR322 DNA assessed as supercoiled DNA irradiated with 7.5 J/cm^2 UV light dose relative to control; assay type: nucleic-acid assay
DNA [12] = test: Induction of DNA damage in Escherichia coli pBR322 DNA assessed as supercoiled DNA irradiated with 15 J/cm^2 UV light dose relative to control; assay type: nucleic-acid assay
DNA [13] = test: Induction of DNA damage in Escherichia coli pBR322 DNA assessed as supercoiled DNA relative to control; assay type: nucleic-acid assay
DNA [14] = test: Induction of DNA damage in Escherichia coli pBR322 DNA assessed as open circular DNA relative to control; assay type: nucleic-acid assay
MDA-MB-231 [15] = test: Induction of apoptosis in human MDA-MB-231 cells assessed as chromatin condensation and fragmentation at IC50 measured after 24 hrs by Hoechst staining based microscopic analysis; assay type: functional
MDA-MB-231 [16] = test: Induction of apoptosis in human MDA-MB-231 cells assessed as pyknotic nuclei at IC50 measured after 24 hrs by Hoechst staining based microscopic analysis; assay type: functional
T-24 [17] = test: Induction of apoptosis in human T24 cells assessed as apoptotic cells at IC50 followed by irradiated with 2 J/cm^2 of light dose after 24 hrs annexin-V-PI staining based flow cytometry; assay type: functional, cell-based
T-24 [18] = test: Induction of apoptosis in human T24 cells assessed as necrotic cells at IC50 followed by irradiated with 2 J/cm^2 of light dose after 24 hrs annexin-V-PI staining based flow cytometry; assay type: functional, cell-based

In the case of CCOC(=O)c1ccc2n1CCc1cnc(NC3CCCCC3)nc1-2, the IC50 (MDA-MB-231 [1]) is reported as 1.74 µM, the IC50 (MDA-MB-231 [2]) is reported as 0.82 µM and the selectivity ratio [3] is reported as 2.1. The IC50 (HCC1954) was 0.9 µM, the IC50 (T-24 [4]) was 0.96 µM and the Activity [5] was “Active”. The Activity [6] was “Active”, the Activity (MDA-MB-231 [7]) was “Active” and the Activity (MDA-MB-231 [8]) was “Tde”. The Activity (DNA [9]) was 21.6%, the Activity (DNA [10]) was 16.5% and the Activity (DNA [11]) was 78.4%. For the same compound, the Activity (DNA [12]) was 83.5%, the Activity (DNA [13]) was 83.4% and the Activity (DNA [14]) was 16.6%. For the same compound, the Activity (MDA-MB-231 [15]) was 83.4%, the Activity (MDA-MB-231 [16]) was 86.2% and the Activity (T-24 [17]) was “Active”. The Activity (T-24 [18]) was “Active”.

In the case of CCOC(=O)c1ccc2n1CCCc1cnc(NC(C)=O)nc1-2, the IC50 (MDA-MB-231 [1]) is reported as 27.9 µM, the IC50 (MDA-MB-231 [2]) is reported as 1.46 µM and the selectivity ratio [3] is reported as 19.1.

Compound c1ccc(Nc2ncc3c(n2)-c2cccn2CC3)cc1 has an IC50 (MDA-MB-231 [1]) greater than 50 µM, an IC50 (MDA-MB-231 [2]) of 5.55 µM and a selectivity ratio [3] greater than 9.

With CC(=O)Nc1ncc2c(n1)-c1ccc(C(=O)OC(C)C)n1CCC2 the IC50 (MDA-MB-231 [1]) was greater than 50 µM, the IC50 (MDA-MB-231 [2]) was 17.2 µM and the selectivity ratio [3] was greater than 2.9.

Work on CC(C)OC(=O)c1ccc2n1CCc1cnc(N)nc1-2 yielded an IC50 (MDA-MB-231 [1]) of 11.9 µM, an IC50 (MDA-MB-231 [2]) of 14.5 µM and a selectivity ratio [3] of 0.8.

CC(C)OC(=O)c1ccc2n1CCCc1cnc(NC3CCCC3)nc1-2 gave an IC50 (MDA-MB-231 [1]) greater than 50 µM, an IC50 (MDA-MB-231 [2]) of 5.76 µM and a selectivity ratio [3] greater than 8.7.

With CCOC(=O)c1ccc2n1CCc1cnc(NC(C)=O)nc1-2 the IC50 (MDA-MB-231 [1]) was greater than 6.25 µM, the IC50 (MDA-MB-231 [2]) was 0.9 µM and the selectivity ratio [3] was greater than 7.

CCOC(=O)c1ccc2n1CCc1cnc(NC3CCCC3)nc1-2 showed an IC50 (MDA-MB-231 [1]) greater than 50 µM and an IC50 (MDA-MB-231 [2]) greater than 50 µM.

For Nc1ncc2c(n1)-c1cccn1CC2, the IC50 (MDA-MB-231 [1]) was greater than 50 µM, the IC50 (MDA-MB-231 [2]) was 6.81 µM and the selectivity ratio [3] was greater than 7.3.

CC(C)OC(=O)c1ccc2n1CCc1cnc(NC3CCCC3)nc1-2 showed an IC50 (MDA-MB-231 [1]) greater than 50 µM, an IC50 (MDA-MB-231 [2]) of 13.4 µM and a selectivity ratio [3] greater than 3.7.

In the case of CC(C)OC(=O)c1ccc2n1CCc1cnc(NC3CCCCC3)nc1-2, the IC50 (MDA-MB-231 [1]) is reported as greater than 50 µM, the IC50 (MDA-MB-231 [2]) is reported as 12.5 µM and the selectivity ratio [3] is reported as greater than 4. The Activity [6] was “Active”, the Activity (DNA [9]) was 40.3% and the Activity (DNA [10]) was 63.4%. For the same compound, the Activity (DNA [11]) was 59.7%, the Activity (DNA [12]) was 36.6% and the Activity (DNA [13]) was 81.3%. For the same compound, the Activity (DNA [14]) was 18.7%.

Work on CC(=O)Nc1ncc2c(n1)-c1cccn1CC2 yielded an IC50 (MDA-MB-231 [1]) greater than 50 µM, an IC50 (MDA-MB-231 [2]) of 14.8 µM and a selectivity ratio [3] greater than 3.4.

In the case of c1cc2n(c1)CCc1cnc(NC3CCCCC3)nc1-2, the IC50 (MDA-MB-231 [1]) is reported as greater than 50 µM, the IC50 (MDA-MB-231 [2]) is reported as 3 µM and the selectivity ratio [3] is reported as greater than 16.7.

Compound CC(C)OC(=O)c1ccc2n1CCCc1cnc(NC3CCCCC3)nc1-2 has an IC50 (MDA-MB-231 [1]) greater than 50 µM, an IC50 (MDA-MB-231 [2]) of 3.75 µM and a selectivity ratio [3] greater than 13.3. The Activity [6] was “Active”, the Activity (DNA [9]) was 49.5% and the Activity (DNA [10]) was 49.9%. For the same compound, the Activity (DNA [11]) was 50.5%, the Activity (DNA [12]) was 50.1% and the Activity (DNA [13]) was 61.5%. For the same compound, the Activity (DNA [14]) was 38.5%.

CC(C)OC(=O)c1ccc2n1CCCc1cnc(Nc3ccccc3)nc1-2 showed an IC50 (MDA-MB-231 [1]) greater than 50 µM, an IC50 (MDA-MB-231 [2]) of 14.3 µM and a selectivity ratio [3] greater than 3.5.

CCOC(=O)c1ccc2n1CCCc1cnc(NC3CCCCC3)nc1-2 showed an IC50 (MDA-MB-231 [1]) of 5.44 µM, an IC50 (MDA-MB-231 [2]) of 0.45 µM and a selectivity ratio [3] of 12.1. For the same compound, the IC50 (HCC1954) was 1.5 µM, the IC50 (T-24 [4]) was 0.9 µM and the Activity [5] was “Active”. For the same compound, the Activity [6] was “Active”, the Activity (MDA-MB-231 [7]) was “Active” and the Activity (MDA-MB-231 [8]) was “Tde”. It also gave an Activity (DNA [9]) of 23.9%, an Activity (DNA [10]) of 25.3% and an Activity (DNA [11]) of 76.1%. For the same compound, the Activity (DNA [12]) was 74.7%, the Activity (DNA [13]) was 86.2% and the Activity (DNA [14]) was 13.8%. The Activity (MDA-MB-231 [15]) was 81.3%, the Activity (MDA-MB-231 [16]) was 61.5% and the Activity (T-24 [17]) was “Active”. The Activity (T-24 [18]) was “Active”.

CCOC(=O)c1ccc2n1CCCc1cnc(NC3CCCC3)nc1-2 showed an IC50 (MDA-MB-231 [1]) of 1.41 µM, an IC50 (MDA-MB-231 [2]) of 0.9 µM and a selectivity ratio [3] of 1.5.

With CC(C)OC(=O)c1ccc2n1CCCc1cnc(N)nc1-2 the IC50 (MDA-MB-231 [1]) was 5.87 µM, the IC50 (MDA-MB-231 [2]) was 5.76 µM and the selectivity ratio [3] was 1.

c1cc2n(c1)CCc1cnc(NC3CCCC3)nc1-2 gave an IC50 (MDA-MB-231 [1]) of 0.91 µM, an IC50 (MDA-MB-231 [2]) of 0.86 µM and a selectivity ratio [3] of 1.1.

Work on CC(=O)Nc1ncc2c(n1)-c1ccc(C(=O)OC(C)C)n1CC2 yielded an IC50 (MDA-MB-231 [1]) greater than 50 µM, an IC50 (MDA-MB-231 [2]) of 13.1 µM and a selectivity ratio [3] greater than 3.8.

For CCOC(=O)c1ccc2n1CCCc1cnc(N)nc1-2, the IC50 (MDA-MB-231 [1]) was greater than 50 µM and the IC50 (MDA-MB-231 [2]) was greater than 50 µM.

Work on CC(C)OC(=O)c1ccc2n1CCc1cnc(Nc3ccccc3)nc1-2 yielded an IC50 (MDA-MB-231 [1]) greater than 50 µM and an IC50 (MDA-MB-231 [2]) greater than 50 µM.

CCOC(=O)c1ccc2n1CCCc1cnc(Nc3ccccc3)nc1-2 gave an IC50 (MDA-MB-231 [1]) greater than 50 µM, an IC50 (MDA-MB-231 [2]) of 5.45 µM and a selectivity ratio [3] greater than 9.2.
